Key:
AR 1.0 cells [1] = test: Drug accumulation assay: daunorubicin accumulation in AR 1.0 cells; assay type: cell-based; conditions: Mus musculus, 100% = accumulation with verapamil 100 μM, 1 hr, 37° C.
Procedure, shortened: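 AR 1.0 is the MDR-resistant subline of EMT6 mouse mammary carcinoma, grown in RPMI 1640 with 10% foetal calf serum and 2 mM glutamine at 37 °C, 5% CO2. Cells were seeded 48 h before the daunorubicin accumulation assay.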

AR 1.0 cells [2] = test: Potentiation of doxorubicin toxicity: proliferation assay (sulphorhodamine B); assay type: cell-based, mouse
Text: (a) Selected compounds of formula (I) were examined for their ability to potentiate the toxicity of doxorubicin in AR 1.0 cells.

AR 1.0 cells [3] = test: Potentiation index with doxorubicin titration; assay type: cell-based, mouse; conditions: for Potentiation Index at RMA concentration 30 nM: Table C2, RMA 30 nM; for Potentiation Index at RMA concentration 100 nM: Table C2, RMA 100 nM; for Potentiation Index at RMA concentration 300 nM: Table C2, RMA 300 nM; for Potentiation Index at RMA concentration 500 nM: Table C2, RMA 500 nM; for Potentiation Index at RMA concentration 10 nM: Table C2, RMA 10 nM
Procedure, shortened: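 MDR-resistant mouse EMT6 subline AR 1.0 grown four days with a doxorubicin titration (0.263 nM-17.24 μM) plus a fixed compound concentration; proliferation by sulphorhodamine B. Potentiation index derived from doxorubicin IC50 alone versus with compound.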

[4] = Mus musculus, 96 h, compound alone, four day proliferation, read-out: Compound Toxicity (IC50)
[5] = with fixed doxorubicin 0.34 μm, four days, 5760 min, read-out: Toxicity with Cytotoxic Agent (IC50)

Row | IC50 (AR 1.0 cells [1]) [nM] | SMILES | IC50 (AR 1.0 cells [2]; [4]) [nM] | IC50 (AR 1.0 cells [2]; [5]) [nM] | Potentiation Index at RMA concentration 30 nM (AR 1.0 cells [3]) | Potentiation Index at RMA concentration 100 nM (AR 1.0 cells [3]) | Potentiation Index at RMA concentration 300 nM (AR 1.0 cells [3]) | Potentiation Index at RMA concentration 500 nM (AR 1.0 cells [3]) | Potentiation Index at RMA concentration 10 nM (AR 1.0 cells [3])
1 | 190 | COc1cc2c(cc1OC)CN(CCc1ccc(NC(=O)c3ccccc3NC(=O)c3cccc(F)c3)cc1)CC2 [compound 9500, 2-(3-Fluoro-benzoylamino)-N-{4-[2-(6,7-dimethoxy-3,4-dihydro-1H-isoquinolin-2-yl)-ethyl]-phenyl}-benzamide] | 5000 | 9 | 5.5 | 97 | 300 | – | –
2 | 530 | COc1cc2c(cc1OC)CN(CCNC(=O)c1ccccc1NC(=O)c1ccc(C(=O)c3ccccc3)cc1)CC2 [compound 9427, 2-(4-Benzoyl-benzoylamino)-N-[2-(6,7-dimethoxy-3,4-dihydro-1H-isoquinolin-2-yl)-ethyl]-benzamide] | 10000 | – | – | – | 14 | 32 | –
3 | 19 | COc1cc2c(cc1OC)CN(CCc1ccc(NC(=O)c3cc(F)ccc3NC(=O)c3cnc4ccccc4c3)cc1)CC2 [compound 9574, Quinoline-3-carboxylic acid (2-{4-[2-(6,7-dimethoxy-3,4-dihydro-1H-isoquinolin-2-yl)-ethyl]-phenylcarbamoyl}-4-fluoro-phenyl)-amide] | 320 | – | 60 | 94 | – | – | 16
4 | 94 | COc1cc2c(cc1OC)CN(CCc1ccc(NC(=O)c3ccc(C)cc3NC(=O)c3cnc4ccccc4c3)cc1)CC2 [compound 9588, Quinoline-3-carboxylic acid (2-{4-[2-(6,7-dimethoxy-3,4-dihydro-1H-isoquinolin-2-yl)-ethyl]-phenylcarbamoyl}-5-methyl-phenyl)-amide] | 6700 | – | 68 | – | – | – | 6
5 | 690 | COc1cc2c(cc1OC)CN(CCNC(=O)c1ccccc1NC(=O)c1ccc(Oc3ccccc3)cc1)CC2 [compound 9426, 2-(4-Phenoxy-benzoylamino)-N-[2-(6,7-dimethoxy-3,4-dihydro-1H-isoquinolin-2-yl)-ethyl]-benzamide] | 7000 | 60 | – | – | – | 65 | –
6 | 250 | COc1cc2c(cc1OC)CN(CCc1ccc(NC(=O)c3ccccc3NC(=O)c3c(F)cccc3F)cc1)CC2 [compound 9514, 2-(2,6-Difluoro-benzoylamino)-N-{4-[2-(6,7-dimethoxy-3,4-dihydro-1H-isoquinolin-2-yl)-ethyl]-phenyl}-benzamide] | 7000 | – | – | – | 40 | 120 | –
7 | 52 | COc1cc2c(cc1OC)CN(CCc1ccc(NC(=O)c3ccccc3NC(=O)c3cnc(C)cn3)cc1)CC2 [compound 9527, 5-Methyl-pyrazine-2-carboxylic acid (2-{4-[2-(6,7-dimethoxy-3,4-dihydro-1H-isoquinolin-2-yl)-ethyl]-phenylcarbamoyl}-phenyl)-amide] | 4500 | 7 | 11 | 50 | 103 | 120 | 1.5
8 | 990 | COc1cc2c(cc1OC)CN(CCc1ccc(NC(=O)c3cc(O)ccc3NC(=O)c3cnc4ccccc4n3)cc1)CC2 [compound 9554, Quinoxaline-2-carboxylic acid (2-{4-[2-(6,7-dimethoxy-3,4-dihydro-1H-isoquinolin-2-yl)-ethyl]-phenylcarbamoyl}-4-hydroxy-phenyl)-amide] | 3000 | 50 | – | 90 | – | – | –
9 | 410 | COc1cc2c(cc1OC)CN(CCc1ccc(NC(=O)c3ccccc3NC(=O)c3ccccc3OC)cc1)CC2 [compound 9477, 2-(2-Methoxy-benzoylamino)-N-{4-[2-(617-dimethoxy-3,4-dihydro-1H-isoquinolin-2-yl)-ethyl]-phenyl}-benzamide] | 4000 | – | – | – | 29 | 63 | –
10 | 84 | COc1cc2c(cc1OC)CN(CCc1ccc(NC(=O)c3cc4c(cc3NC(=O)c3cnc5ccccc5c3)OCO4)cc1)CC2 [compound 9578, Quinoline-3-carboxylic acid (6-{4-[2-(6,7-dimethoxy-3,4-dihydro-1H-isoquinolin-2-yl)-ethyl]-phenylcarbamoyl}-benzo[1,3]dioxoi-5-yl)-amide] | 900 | – | 188 | – | – | – | 43
11 | 600 | COc1cc2c(cc1OC)CN(CCNC(=O)c1cc(Cl)ccc1NC(=O)c1ccc(C(C)C)cc1)CC2 [compound 9354, 2-(4-Isopropyl-benzoylamino)-N-[2-(6,7-dimethoxy-3,4-dihydro-1H-isoquinolin-2-yl)-ethyl]-5-chioro-benzamide] | 8000 | 150 | – | – | – | 20 | –
12 | 480 | COc1cc2c(cc1OC)CN(CCc1ccc(NC(=O)c3ccccc3NC(=O)c3ccc(Cl)cc3)cc1)CC2 [compound 9496, 2-(4-chloro-benzoylamino)-N-{4-[2-(6,7-dimethoxy-3,4-dihydro-1H-isoquinolin-2-yl)-ethyl]-phenyl}-benzamide] | 4000 | 30 | 1.6 | 19 | 254 | 825 | –
13 | 400 | CCCc1ccc(C(=O)Nc2ccccc2C(=O)NCCN2CCc3cc(OC)c(OC)cc3C2)cc1 [compound 9297, 2-(4-Propyl-benzoylamino)-N-[2-(6,7-dimethoxy-3,4-dihydro-1H-isoquinolin-2-yl)-ethyl]-benzamide] | 18000 | 330 | – | – | 16 | – | –
14 | 12 | COc1cc2c(cc1OC)CN(CCc1ccc(NC(=O)c3ccccc3NC(=O)c3ccc(C)nc3)cc1)CC2 [compound 9557, N-(2-{4-[2-(6,7-Dimethoxy-3,4-dihydro-1H isoquinolin-2-yl)-ethyl]-phenylcarbamoyl}phenyl)-6-methyl-nicotinamide] | 9000 | 20 | – | 100 | – | – | 1.2
15 | 300 | COc1cc2c(cc1OC)CN(CCNC(=O)c1ccc(F)cc1NC(=O)c1ccc(C(C)C)cc1)CC2 [compound 9349, 2-(4-Isopropyl-benzoylamino)-N-[2-(6,7-dimethoxy-3,4-dihydro-1H-isoquinolin-2-yl)-ethyl]-4-fluoro-benzamide] | 5500 | 140 | – | – | – | 22 | –
16 | 200 | COc1cc2c(cc1OC)CN(CCc1ccc(NC(=O)c3ccccc3NC(=O)c3cccs3)cc1)CC2 [compound 9471, Thiophene-2-carboxylic acid (2-{4-[2-(6,7-dimethoxy-3,4-dihydro-1H-isoquinolin-2-yl)-ethyl]-phenylcarbamoyl}-phenyl)-amide] | 2600 | – | – | – | 115 | 230 | –
17 | 140 | COc1cc2c(cc1OC)CN(CCc1ccc(NC(=O)c3ccccc3NC(=O)c3ccccc3OC(C)=O)cc1)CC2 [compound 9534, Acetic acid 2-(2-{4-[2-(6,7-dimethoxy-3,4-dihydro-1H-isoquinolin-2-yl)-ethyl]-phenylcarbamoyl}-phenylcarbamoyl)-phenyl ester] | 6600 | 0.2 | – | – | – | – | –
18 | 4300 | COc1cc2c(cc1OC)CN(CCc1ccc(NC(=O)c3ccccc3NC(=O)c3cccc(O)c3)cc1)CC2 [compound 9549, 2-(3-Hydroxy-benzoylamino)-N-{4-[2-(6,7-dimethoxy-3,4-dihydro-1H-isoquinolin-2-yl)-ethyl]-phenyl}-benzanlide] | 5600 | 520 | – | – | – | – | –
19 | 1700 | COc1cc2c(cc1OC)CN(CCNC(=O)c1ccccc1NC(=O)c1ccc(N(C)C)cc1)CC2 [compound 9256] | 40000 | 300 | – | – | – | – | –
20 | 1300 | COc1cc2c(cc1OC)CN(CCNC(=O)c1ccccc1NC(=O)c1ccc(C(C)(C)C)cc1)CC2 [compound 9334, 2-(4-tert-Butyl-benzoylamino)-N-[2-(6,7-dimethoxy-3,4-dihydro-1H-isoquinolin-2-yl)-ethyl]-benzamide] | 8000 | 50 | – | – | – | – | –
21 | 9000 | COc1cc2c(cc1OC)CN(CCNC(=O)c1ccccc1NC(=O)c1ccccc1)CC2 [compound 9351, 2-Benzoylamino-N-[2-(6,7-dimethoxy-3,4-dihydro-1H-isoquinolin-2-yl)-ethyl]-benzamide] | 43000 | 1300 | – | – | – | – | –

Row | SMILES | IC50 (AR 1.0 cells [1]) [nM] | IC50 (AR 1.0 cells [2]; [4]) [nM] | IC50 (AR 1.0 cells [2]; [5]) [nM] | Potentiation Index at RMA concentration 30 nM (AR 1.0 cells [3]) | Potentiation Index at RMA concentration 100 nM (AR 1.0 cells [3]) | Potentiation Index at RMA concentration 300 nM (AR 1.0 cells [3]) | Potentiation Index at RMA concentration 500 nM (AR 1.0 cells [3]) | Potentiation Index at RMA concentration 10 nM (AR 1.0 cells [3])
22 | COc1cc2c(cc1OC)CN(CCNC(=O)c1ccccc1NC(=O)c1ccc3ccccc3n1)CC2 [compound 9385, Quinoline-2-carboxylic acid {2-[2-(6,7-dimethoxy-3,4-dihydro-1H-isoquinolin-2-yl)-ethylcarbamoyl]-phenyl}-amide] | 1200 | 40000 | – | – | – | – | – | –

From patent US6218393A, “Anthranilic acid derivatives as multi drug resistance modulators” (priority 1997, dated 2001)
